The NIST ThermoML archive (doi:10.1021/je400839x)
Numbers after ± are expanded uncertainties.

Assay: xn = mol fraction of the nth substance listed
Conditions: for viscosity / speed of sound / mass density: 101 kPa, Liquid; for viscosity: Concentric cylinders viscometry; for speed of sound: Pulse-echo method; for mass density: Vibrating tube method; for surface tension liquid-gas: 294 K, Pendant drop shape

CC(CC(C)(C)C)CC(C)(C)C [2,2,4,6,6-pentamethylheptane] + CCCCCCCCCCCCCCCC
Conditions | mass density [kg/m3] | speed of sound [m/s] | viscosity [mPa·s]
293.15 K, x1 = 0.1261 | 770.6 ± 0.3 | 1342.7 ± 1.4 | 3.1 ± 0.02
293.15 K, x1 = 0.2449 | 767.8 ± 0.3 | 1327.4 ± 1.5 | 2.79 ± 0.02
293.15 K, x1 = 0.4087 | 763.6 ± 0.4 | 1304.9 ± 1.6 | 2.41 ± 0.02
293.15 K, x1 = 0.562 | 759.5 ± 0.4 | 1282.2 ± 1.8 | 2.09 ± 0.02
293.15 K, x1 = 0.7036 | 755.3 ± 0.5 | 1259.1 ± 1.9 | 1.8 ± 0.02
293.15 K, x1 = 0.8368 | 751 ± 0.5 | 1235.8 ± 2 | 1.56 ± 0.02
293.15 K, x1 = 1 | 745.5 ± 0.6 | 1204 ± 2.2 | 1.29 ± 0.02
303.15 K, x1 = 0.1261 | 763.8 ± 0.3 | 1305.2 ± 1.4 | 2.47 ± 0.02
303.15 K, x1 = 0.2449 | 760.9 ± 0.3 | 1290 ± 1.5 | 2.25 ± 0.02
303.15 K, x1 = 0.4087 | 756.8 ± 0.4 | 1267.4 ± 1.6 | 1.97 ± 0.02
303.15 K, x1 = 0.562 | 752.6 ± 0.4 | 1244.5 ± 1.8 | 1.72 ± 0.02
303.15 K, x1 = 0.7036 | 748.3 ± 0.5 | 1221.1 ± 1.9 | 1.5 ± 0.02
303.15 K, x1 = 0.8368 | 743.9 ± 0.5 | 1197.4 ± 2 | 1.31 ± 0.02
303.15 K, x1 = 1 | 738.2 ± 0.6 | 1164.9 ± 2.2 | 1.1 ± 0.01
313.15 K, x1 = 0.1261 | 756.8 ± 0.3 | 1268.4 ± 1.4 | 2.03 ± 0.02
313.15 K, x1 = 0.2449 | 754 ± 0.3 | 1253.3 ± 1.5 | 1.86 ± 0.02
313.15 K, x1 = 0.4087 | 749.8 ± 0.4 | 1230.7 ± 1.6 | 1.64 ± 0.02
313.15 K, x1 = 0.562 | 745.6 ± 0.4 | 1207.5 ± 1.8 | 1.44 ± 0.02
313.15 K, x1 = 0.7036 | 741.3 ± 0.5 | 1183.8 ± 1.9 | 1.27 ± 0.01
313.15 K, x1 = 0.8368 | 736.8 ± 0.5 | 1159.8 ± 2 | 1.11 ± 0.01
313.15 K, x1 = 1 | 730.9 ± 0.6 | 1126.7 ± 2.2 | 0.941 ± 0.012
323.15 K, x1 = 0.1261 | 749.9 ± 0.3 | 1232.5 ± 1.4 | 1.68 ± 0.01
323.15 K, x1 = 0.2449 | 747.1 ± 0.3 | 1217.2 ± 1.5 | 1.55 ± 0.01
323.15 K, x1 = 0.4087 | 742.9 ± 0.4 | 1194.6 ± 1.6 | 1.38 ± 0.01
323.15 K, x1 = 0.562 | 738.6 ± 0.4 | 1171.2 ± 1.8 | 1.23 ± 0.01
323.15 K, x1 = 0.7036 | 734.2 ± 0.5 | 1147.2 ± 1.9 | 1.09 ± 0.01
323.15 K, x1 = 0.8368 | 729.6 ± 0.5 | 1122.9 ± 2 | 0.966 ± 0.012
323.15 K, x1 = 1 | 723.5 ± 0.6 | 1089.3 ± 2.2 | 0.827 ± 0.011
333.15 K, x1 = 0.1261 | 742.9 ± 0.3 | – | 1.42 ± 0.01
333.15 K, x1 = 0.2449 | 740.1 ± 0.3 | – | 1.32 ± 0.01
333.15 K, x1 = 0.4087 | 735.8 ± 0.4 | – | 1.18 ± 0.01
333.15 K, x1 = 0.562 | 731.5 ± 0.4 | – | 1.06 ± 0.01
333.15 K, x1 = 0.7036 | 727 ± 0.5 | – | 0.944 ± 0.011
333.15 K, x1 = 0.8368 | 722.3 ± 0.5 | – | 0.843 ± 0.011
333.15 K, x1 = 1 | 716.1 ± 0.6 | – | 0.726 ± 0.01
343.15 K, x1 = 0.1261 | 735.9 ± 0.3 | – | 1.22 ± 0.01
343.15 K, x1 = 0.2449 | 733 ± 0.3 | – | 1.14 ± 0.01
343.15 K, x1 = 0.4087 | 728.7 ± 0.4 | – | 1.02 ± 0.01
343.15 K, x1 = 0.562 | 724.4 ± 0.4 | – | 0.922 ± 0.011
343.15 K, x1 = 0.7036 | 719.7 ± 0.5 | – | 0.827 ± 0.01
343.15 K, x1 = 0.8368 | 714.9 ± 0.5 | – | 0.742 ± 0.01
343.15 K, x1 = 1 | 708.6 ± 0.6 | – | 0.643 ± 0.01
353.15 K, x1 = 0.1261 | 728.8 ± 0.3 | – | 1.06 ± 0.01
353.15 K, x1 = 0.2449 | 725.9 ± 0.3 | – | 0.988 ± 0.01
353.15 K, x1 = 0.4087 | 721.5 ± 0.4 | – | 0.894 ± 0.01
353.15 K, x1 = 0.562 | 717.1 ± 0.4 | – | 0.81 ± 0.01
353.15 K, x1 = 0.7036 | 712.3 ± 0.5 | – | 0.73 ± 0.01
353.15 K, x1 = 0.8368 | 707.5 ± 0.5 | – | 0.658 ± 0.01
353.15 K, x1 = 1 | 700.9 ± 0.5 | – | 0.573 ± 0.009
363.15 K, x1 = 0.1261 | 721.7 ± 0.3 | – | 0.928 ± 0.01
363.15 K, x1 = 0.2449 | 718.8 ± 0.3 | – | 0.87 ± 0.01
363.15 K, x1 = 0.4087 | 714.4 ± 0.4 | – | 0.791 ± 0.009
363.15 K, x1 = 0.562 | 709.8 ± 0.4 | – | 0.719 ± 0.009
363.15 K, x1 = 0.7036 | 704.9 ± 0.4 | – | 0.651 ± 0.009
363.15 K, x1 = 0.8368 | 700 ± 0.5 | – | 0.589 ± 0.009
363.15 K, x1 = 1 | 693.2 ± 0.5 | – | 0.515 ± 0.009
373.15 K, x1 = 0.1261 | 714.5 ± 0.3 | – | 0.823 ± 0.009
373.15 K, x1 = 0.2449 | 711.7 ± 0.3 | – | 0.773 ± 0.009
373.15 K, x1 = 0.4087 | 707.1 ± 0.4 | – | 0.706 ± 0.009
373.15 K, x1 = 0.562 | 702.5 ± 0.4 | – | 0.644 ± 0.009
373.15 K, x1 = 0.7036 | 697.5 ± 0.4 | – | 0.585 ± 0.009
373.15 K, x1 = 0.8368 | 692.3 ± 0.5 | – | 0.531 ± 0.009
373.15 K, x1 = 1 | 685.5 ± 0.5 | – | 0.467 ± 0.008

Conditions | surface tension liquid-gas [mN/m]
x1 = 0.1261 | 25.9 ± 0.4
x1 = 0.2449 | 25.3 ± 0.4
x1 = 0.4087 | 24.3 ± 0.4
x1 = 0.562 | 23.8 ± 0.4
x1 = 0.7036 | 23.1 ± 0.4
x1 = 0.8368 | 22.5 ± 0.4
x1 = 1 | 21.8 ± 0.4
